SMILES strings stand for the structures.

Drawing on patent US6962912B2, “Substituted pyrazolo[4,3-e]diazepines, pharmaceutical compositions containing them, use as medicinal products and processes for preparing them” (Warner-Lambert LLC, priority 2000, dated 2005), this text covers IC50 and melting point for 28 molecules.

For the first series, the target named is PDE4. In words: Inhibition of PDE4 (cytosolic enzyme preparation from U937 line), compared with rolipram. The series is classed as biochemical, human. To be noted: PDE4 enzyme preparation obtained from the U937 line.
Regarding `CCCn1nc(C(C)CC)c2c1C(=O)NCC(c1ccccc1)=N2` (racemic) [Example 70, (±)3-sec-Butyl-5-phenyl-1-propyl-6,7-dihydro-1H-pyrazolo-[4,3-e][1,4]diazepin-8-one], the IC50 was 11 nM.
Same read-out and setting: the same measure for `CCC(C)c1nn(CC)c2c1N=C(c1ccc(OC)cc1)CNC2=O` (racemic) [Example 89, (±)3-sec-Butyl-1-ethyl-5-(4-methoxyphenyl)-6,7-dihydro-1H-pyrazolo[4,3-e][1,4]diazepin-8-one]: 33 nM; for `CCCn1nc(C(C)CC)c2c1C(=O)NCC(c1ccc(OC)cc1)=N2` (racemic) [Example 90, (±)3-sec-Butyl-5-(4-methoxyphenyl)-1-propyl-6,7-dihydro-1H-pyrazolo[4,3-e][1,4]diazepin-8-one]: 193 nM; for `CCn1nc(-c2ccccc2)c2c1C(=O)NCC(c1ccccc1)=N2` [Example 4, 1-Ethyl-3,5-diphenyl-6,7-dihydro-1H-pyrazolo[4,3-e][1,4]diazepin-8-one]: 8.4 nM.
`CCOC(=O)c1nn(CC)c2c1N=C(c1ccccc1)CNC2=O` [Example 5, Ethyl 1-ethyl-8-oxo-5-phenyl-1,6,7,8-tetrahydropyrazolo-[4,3-e][1,4]diazepin-3-carboxylate] yielded an IC50 of 390 nM.
The same measure, in the same setting: to `CCn1nc(C)c2c1C(=O)NCC(CCC(=O)OC)=N2` [Example 10, Methyl 3-(1-ethyl-3-methyl-8-oxo-1,6,7,8-tetrahydro-pyrazolo[4,3-e][1,4]diazepin-5-yl)propanoate] belongs 1290 nM; to `Cc1nn(CC(F)(F)F)c2c1N=C(c1ccccc1)CNC2=O` [Example 30, 3-Methyl-5-phenyl-1-(2.2.2-trifluoroethyl)-6,7-dihydro-1H-pyrazolo[4,3-e][1,4]diazepin-8-one], 300 nM; to `CCn1nc(C(C)C)c2c1C(=O)NCC(c1ccc(N3CCCC3)cc1)=N2` [Example 38, 1-Ethyl-3-isopropyl-5-(4-pyrrolidin-1-yl-phenyl)-6,7-dihydro-1H-pyrazolo[4,3-e][1,4]diazepin-8-one], 650 nM.
In the case of `CCCn1nc(C(C)C)c2c1C(=O)NCC(c1ccc(OC)cc1OC)=N2` [Example 43, 5-(2,4-Dimethoxyphenyl)-3-isopropyl-1-propyl-6,7-dihydro-1H-pyrazolo[4,3-e][1,4]diazepin-8-one], the IC50 is 48 nM.
Molecule `CCn1nc(C(C)(C)C)c2c1C(=O)NCC(C(C)(C)C)=N2` [Example 44, 3,5-Di-tert-butyl-1-ethyl-6,7-dihydro-1H-pyrazolo[4,3-e][1,4]diazepin-8-one] showed an IC50 of 1.1 nM. This IC50 is about 44-fold lower than that of the molecule before.
The molecule `CCn1nc(C(C)(C)C)c2c1C(=O)NCC(c1ccc(OC)cc1OC)=N2` [Example 47, 3-tert-Butyl-5-(2,4-dimethoxyphenyl)-1-ethyl-6,7-dihydro-1H-pyrazolo[4,3-e][1,4]diazepin-8-one] yielded an IC50 of 21 nM. Against the preceding molecule, the IC50 is about 19-fold higher.
Consider `CCCn1nc(C(C)(C)C)c2c1C(=O)NCC(C(C)(C)C)=N2` [Example 48, 3,5-Di-tert-butyl-1-propyl-6,7-dihydro-1H-pyrazolo[4,3-e][1,4]diazepin-8-one], for which the midpoint of inhibition, the IC50, lay at 8.1 nM.
On the same count and under the same terms, the same measure for `CCCn1nc(C(C)(C)C)c2c1C(=O)NCC(c1ccc(C)cc1)=N2` [Example 49, 3-tert-Butyl-1-propyl-5-p-tolyl-6,7-dihydro-1H-pyrazolo[4,3-e][1,4]diazepin-8-one]: 32 nM; for `CCCn1nc(C(C)(C)C)c2c1C(=O)NCC(c1ccc(C#N)cc1)=N2` [Example 50, 4-(3-tert-Butyl-8-oxo-1-propyl-1,6,7,8-tetrahydro-1H-pyrazolo[4,3-e][1,4]diazepin-5-yl)benzonitrile]: 16 nM; for `CCCn1nc(C(C)(C)C)c2c1C(=O)NCC(c1ccc(OC)cc1OC)=N2` [Example 51, 3-tert-Butyl-5-(2,4-dimethoxyphenyl)-1-propyl-6,7-dihydro-1H-pyrazolo[4,3-e][1,4]diazepin-8-one]: 60 nM.
On the same count and under the same terms, to `CCn1nc(C)c2c1C(=O)NCC(c1ccc(N(S(=O)(=O)c3ccccc3)S(=O)(=O)c3ccccc3)cc1)=N2` [Example 56, N-[4-(1-Ethyl-3-methyl-8-oxo-1,6,7,8-tetrahydro-pyrazolo[4,3-e][1,4]diazepin-5-yl)phenyl]-(phenylsulphonyl)benzenesulphonamide] belongs 500 nM.
The same measure, in the same setting: the same measure for `Cc1nn(CC2CC2)c2c1N=C(c1ccccc1)CNC2=O` [Example 58, 1-Cyclopropylmethyl-3-methyl-5-phenyl-6,7-dihydro-1H-pyrazolo[4,3-e][1,4]diazepin-8-one]: 140 nM; for `C=CCn1nc(C)c2c1C(=O)NCC(c1ccccc1)=N2` [Example 59, 1-Allyl-3-methyl-5-phenyl-6,7-dihydro-1H-pyrazolo[4,3-e][1,4]diazepin-8-one]: 510 nM; for `CCn1nc(C(C)C)c2c1C(=O)NCC(c1ccc(C(F)(F)F)cc1)=N2` [Example 61, 1-Ethyl-3-isopropyl-5-(4-trifluoromethylphenyl)-6,7-dihydro-1H-pyrazolo[4,3-e][1,4]diazepin-8-one]: 7.9 nM.
In turn, `CCn1nc(C)c2c1C(=O)NCC(c1ccc(C(F)(F)F)cc1)=N2` [Example 62, 1-Ethyl-3-methyl-5-(4-trifluoromethylphenyl)-6,7-dihydro-1H-pyrazolo[4,3-e][1,4]diazepin-8-one] yielded an IC50 of 260 nM.
`CCn1nc(C2CCCCC2)c2c1C(=O)NCC(c1ccccc1)=N2` [Example 72, 3-Cyclohexyl-1-ethyl-5-phenyl-6,7-dihydro-1H-pyrazolo-[4,3-e][1,4]diazepin-8-one] yielded an IC50 of 1.8 nM.
On the same count and under the same terms, the same measure for `CCCn1nc(C2CCCCC2)c2c1C(=O)NCC(c1ccccc1)=N2` [Example 74, 3-Cyclohexyl-5-phenyl-1-propyl-6,7-dihydro-1H-pyrazolo-[4,3-e][1,4]diazepin-8-one]: 5.4 nM; for `CCn1nc(CC2CCCCC2)c2c1C(=O)NCC(c1ccncc1)=N2` [Example 76, 3-Cyclohexylmethyl-1-ethyl-5-pyrid-4-yl-6,7-dihydro-1H-pyrazolo[4,3-e][1,4]diazepin-8-one]: 8.2 nM; for `CCCn1nc(CC2CCCCC2)c2c1C(=O)NCC(c1ccccc1)=N2` [Example 77, 3-Cyclohexylmethyl-5-phenyl-1-propyl-6,7-dihydro-1H-pyrazolo[4,3-e][1,4]diazepin-8-one]: 210 nM.
The molecule `CCCn1nc(CC2CCCCC2)c2c1C(=O)NCC(c1ccncc1)=N2` [Example 78, 3-Cyclohexylmethyl-1-propyl-5-pyrid-4-yl-6,7-dihydro-1H-pyrazolo[4,3-e][1,4]diazepin-8-one] registered an IC50 of 21 nM. This IC50 is about 10-fold lower than that of the molecule before.
`CCn1nc(CC2CCCCC2)c2c1C(=O)NCC(c1ccccc1)=N2` [Example 79, 3-Cyclohexylmethyl-1-ethyl-5-phenyl-6,7-dihydro-1H-pyrazolo[4,3-e][1,4]diazepin-8-one] showed an IC50 of 11 nM.
In turn, `CCOCc1nn(CC)c2c1N=C(c1ccccc1)CNC2=O` [Example 97, 3-Ethoxymethyl-1-ethyl-5-phenyl-6,7-dihydro-1H-pyrazolo-[4,3-e][1,4]diazepin-8-one] had an IC50 of 1580 nM.

System in the next series: not given
Test: not given
Conditions: not given
The molecule `CCC(C)c1nn(CC)c2c1N=C(c1ccc(OC)cc1)CNC2=O` (racemic) [Example 89, (±)3-sec-Butyl-1-ethyl-5-(4-methoxyphenyl)-6,7-dihydro-1H-pyrazolo[4,3-e][1,4]diazepin-8-one] gave a melting point of 50 °C.
With `CCCn1nc(C(C)CC)c2c1C(=O)NCC(c1ccc(OC)cc1)=N2` (racemic) [Example 90, (±)3-sec-Butyl-5-(4-methoxyphenyl)-1-propyl-6,7-dihydro-1H-pyrazolo[4,3-e][1,4]diazepin-8-one], the melting point turned out to be 85 °C.
In turn, `CCn1nc(C)c2c1C(=[SH]c1ccc(OC)cc1)NCC=N2` [Example 83, 1-Ethyl-S-(4-methoxyphenyl)-3-methyl-6,7-dihydro-1H-pyrazolo[4,3-e][1,4]diazepin-8-thione] showed a melting point of 209 °C.
